Among the data in patent US20230097157A1, “Bicyclic Pyridin-2-one and pyrimidin-4-one Derivatives Useful As a Factor XIa Inhibitors” (Janssen Pharmaceutica NV, priority 2021, published 2023) are IC50 values, retold here.

Where two headings read alike, the source gives them in different places.

One experiment has as its target Factor XIa (Homo sapiens, UniProt P03951). The experiment in a line: Factor XIa inhibition assay (FLINT) utilizing a fluorophore-quencher pair peptide substrate 5Fam-[…]-K5Tamra. Type of experiment: biochemical. The settings on record: kinetic (KIN) reads, read-out: FXIa KIN Inh IC50. The method in brief: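 Compounds were tested as 11-point 3-fold dilutions from 100 nM (2% DMSO). They were preincubated 30 min with FXIa in 50 mM Tris pH 7.5, 5 mM CaCl2, then 15 μM fluorophore-quencher peptide was added. Cleavage was followed at 485/520 nm over 30 min, and IC50 was derived by 4-parameter logistic fit.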

The next experiment addresses human plasma kallikrein (Homo sapiens, UniProt P03952). Nature of the experiment: Kallikrein inhibition assay (FLINT) utilizing a quenched AMC peptide substrate Z-Gly-Pro-Arg-AMC. It is filed as biochemical. The settings on record: kinetic (KIN) reads, read-out: Kallikrein KIN Inh IC50. An outline of the steps:
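IC50 from a 4-parameter logistic fit of % inhibition from 11 concentrations (3-fold, top 1 μM, 2% DMSO). Compound pre-incubated 30 min with 2 nM enzyme in Tris pH 7.5, NaCl, CaCl2, BSA, CHAPS, then 50 μM AMC peptide substrate added. Fluorescence (340/440 nm) followed every 5 min for 30 min at room temperature.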

Broadly, the IC50 is the point on the concentration scale where inhibition reaches its midpoint.

Sequence of Factor XIa (P03951 388-625 limits assumed): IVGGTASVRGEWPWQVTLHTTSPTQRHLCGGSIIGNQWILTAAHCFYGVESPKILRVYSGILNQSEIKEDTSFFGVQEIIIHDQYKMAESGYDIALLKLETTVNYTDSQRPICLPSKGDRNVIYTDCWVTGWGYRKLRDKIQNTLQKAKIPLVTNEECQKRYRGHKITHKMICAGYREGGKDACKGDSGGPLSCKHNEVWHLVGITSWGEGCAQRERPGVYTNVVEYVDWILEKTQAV
Sequence of Factor XIa (P03951 19-387 partner limits assumed): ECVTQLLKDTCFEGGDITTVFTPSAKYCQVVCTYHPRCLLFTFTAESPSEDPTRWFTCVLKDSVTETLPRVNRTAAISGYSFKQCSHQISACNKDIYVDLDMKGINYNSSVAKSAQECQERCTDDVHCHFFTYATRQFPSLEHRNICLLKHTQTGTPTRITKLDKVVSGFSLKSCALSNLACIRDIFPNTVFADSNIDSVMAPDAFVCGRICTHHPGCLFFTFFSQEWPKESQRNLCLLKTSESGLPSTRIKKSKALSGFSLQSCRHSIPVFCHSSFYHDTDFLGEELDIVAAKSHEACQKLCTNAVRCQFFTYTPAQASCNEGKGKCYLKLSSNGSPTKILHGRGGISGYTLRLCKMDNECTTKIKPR
Sequence of human plasma kallikrein (P03952 391-638 limits assumed): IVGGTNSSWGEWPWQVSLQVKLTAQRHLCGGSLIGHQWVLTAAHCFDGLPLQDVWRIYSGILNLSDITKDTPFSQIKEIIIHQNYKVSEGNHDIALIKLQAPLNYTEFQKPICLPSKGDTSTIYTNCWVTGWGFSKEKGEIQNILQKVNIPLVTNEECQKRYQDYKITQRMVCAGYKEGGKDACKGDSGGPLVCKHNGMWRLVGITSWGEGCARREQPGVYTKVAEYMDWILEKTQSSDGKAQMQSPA
Sequence of human plasma kallikrein (P03952 20-390 partner limits assumed): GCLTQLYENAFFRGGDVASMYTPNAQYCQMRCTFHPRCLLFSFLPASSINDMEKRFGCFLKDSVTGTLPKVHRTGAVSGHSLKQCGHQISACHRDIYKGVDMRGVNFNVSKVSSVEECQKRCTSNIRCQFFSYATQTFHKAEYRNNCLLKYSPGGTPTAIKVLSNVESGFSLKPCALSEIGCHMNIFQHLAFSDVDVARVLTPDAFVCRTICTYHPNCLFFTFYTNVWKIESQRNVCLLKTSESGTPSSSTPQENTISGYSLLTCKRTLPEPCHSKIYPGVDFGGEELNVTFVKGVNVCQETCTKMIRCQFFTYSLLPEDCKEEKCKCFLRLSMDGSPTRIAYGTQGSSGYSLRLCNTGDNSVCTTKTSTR

With `C[C@@H]1C[C@H](c2ncc(-c3cnnn3C)[nH]2)n2c1nc(-c1c(-n3cnnn3)ccc(Cl)c1F)cc2=O` (relative stereo) [Example 135, (6*R,8*R)-2-(3-Chloro-2-fluoro-6-(1H-tetrazol-1-yl)phenyl)-8-methyl-6-(5-(1-methyl-1H-1,2,3-triazol-5-yl)-1H-imidazol-2-yl)-7,8-dihydropyrrolo[1,2-a]pyrimidin-4(6H)-one], the figures for the IC50 on Factor XIa (unit μM) and at human plasma kallikrein (unit μM) were 2.7 µM and above 10 µM, respectively.
With `C[C@@H]1C[C@@H](c2ncc(-c3ccc(N)nc3F)[nH]2)n2c1nc(-c1c(-n3cnnn3)ccc(Cl)c1F)cc2=O` (relative stereo) [Example 137, (6S*,8R*)-6-(5-(6-Amino-2-fluoropyridin-3-yl)-1H-imidazol-2-yl)-2-(3-chloro-2-fluoro-6-(1H-tetrazol-1-yl)phenyl)-8-methyl-7,8-dihydropyrrolo[1,2-a]pyrimidin-4(6H)-one], the concentration for half-maximal inhibition (IC50) turned out to be 0.104 µM on Factor XIa (values in nM) and 7.2 µM at human plasma kallikrein (unit μM).
Take `C[C@@H]1C[C@@H](c2ncc(-c3ccnn3C)[nH]2)n2c1nc(-c1c(-n3cnnn3)ccc(Cl)c1F)cc2=O` (relative stereo) [Example 145, (6S*,8R*)-2-(3-Chloro-2-fluoro-6-(1H-tetrazol-1-yl)phenyl)-8-methyl-6-(5-(1-methyl-1H-pyrazol-5-yl)-1H-imidazol-2-yl)-7,8-dihydropyrrolo[1,2-a]pyrimidin-4(6H)-one]: the IC50 at Factor XIa (unit μM) and on human plasma kallikrein (unit μM) was above 10 µM in each case.
With `C[C@@H]1C[C@@H](c2ncc(-c3ccnc(C(F)(F)F)c3)[nH]2)n2c1nc(-c1c(-n3cnnn3)ccc(Cl)c1F)cc2=O` (relative stereo) [Example 147, (6S*,8R*)-2-(3-Chloro-2-fluoro-6-(1H-tetrazol-1-yl)phenyl)-8-methyl-6-(5-(2-(trifluoromethyl)pyridin-4-yl)-1H-imidazol-2-yl)-7,8-dihydropyrrolo[1,2-a]pyrimidin-4(6H)-one], the IC50 at Factor XIa (unit μM) and on human plasma kallikrein (unit μM) was above 10 µM each time.
For `C[C@H]1C[C@@H](c2ncc(-c3ccnc(C(F)(F)F)c3)[nH]2)n2c1nc(-c1c(-n3cnnn3)ccc(Cl)c1F)cc2=O` (relative stereo) [Example 148, (6S*,8S*)-2-(3-Chloro-2-fluoro-6-(1H-tetrazol-1-yl)phenyl)-8-methyl-6-(5-(2-(trifluoromethyl)pyridin-4-yl)-1H-imidazol-2-yl)-7,8-dihydropyrrolo[1,2-a]pyrimidin-4(6H)-one], the IC50 at Factor XIa (values in nM) was 0.0476 µM; on human plasma kallikrein (values in nM), 0.094 µM.
With `CO[C@@H]1C[C@H](c2ncc(-c3ccc(N)nc3F)[nH]2)n2c1cc(-c1c(-n3cnnn3)ccc(Cl)c1F)cc2=O` (relative stereo) [Example 151, (1*R,3*R)-3-(5-(6-Amino-2-fluoropyridin-3-yl)-1H-imidazol-2-yl)-7-(3-chloro-2-fluoro-6-(1H-tetrazol-1-yl)phenyl)-1-methoxy-2,3-dihydroindolizin-5(1H)-one], the IC50 on Factor XIa (values in nM) was 0.0003 µM; on human plasma kallikrein (values in nM) it was 0.014 µM.
Consider `Nc1ccc(-c2cnc(C3CCCc4cc(-c5c(-n6cnnn6)ccc(Cl)c5F)cc(=O)n43)[nH]2)c(F)n1` (single isomer, unassigned) [Cmpd (III), (*S)-6-(5-(6-amino-2-fluoropyridin-3-yl)-1H-imidazol-2-yl)-2-(3-chloro-2-fluoro-6-(1H-tetrazol-1-yl)phenyl)-6,7,8,9-tetrahydro-4H-quinolizin-4-one], for which the figures for the IC50 on Factor XIa (values in nM) and at human plasma kallikrein (values in nM) were 0.0012 µM and 0.1 µM, respectively.
On to `Nc1ccc(-c2cnc([C@@H]3CC4(CC4)c4cc(-c5cc(Cl)ccc5-n5cnnn5)cc(=O)n43)[nH]2)c(F)n1` (single isomer, unassigned) [Example 4], for which the figures for the IC50 at Factor XIa (values in nM) and at human plasma kallikrein (unit μM) were above 0.1 µM and above 1 µM, respectively.
